Measurements published in PubChem BioAssay AID586 (The Scripps Research Institute Molecular Screening Center, 2007).
Active and inactive are the calls of the source. How the calls were made is not given here.

test system: antigen receptor-induced NF-kappaB activation reporter, cells; test: NF-kB reporter activation blockers, potency – cell-based, dose response (AID 586)

Compound | IC50
CCNc1ccc(C(=O)OCC)cc1NC(=O)c1cccc(N(C)C)c1 | > 30000 nM (inactive)
CN(C)c1ccc2c(c1)OC(N)=C(C#N)C2c1cccc(F)c1 (stereo not given) | 1650 nM
O=C(NCc1cccs1)c1nc2c(nnn2Cc2ccccc2Cl)c(=O)[nH]1 | 2320 nM
COCCn1c(C)cc(C(=O)CSc2nnc(C)s2)c1C | 4100 nM
COc1ccc2cc(C(=O)NCc3ccco3)c(=Nc3ccc(C(=O)O)cc3)oc2c1 | 20900 nM (inactive)
N#Cc1c(NC(=O)CSc2ncn[nH]2)sc2c1CCCCC2 | 6570 nM
Clc1ccc(COn2nnc3ccccc32)c(Cl)c1 | > 30000 nM (inactive)
CCOc1ccccc1NC(=O)c1cccc(NC(=O)c2ccco2)c1 | > 30000 nM (inactive)
COc1cccc(C=Nc2cccnc2)c1O | > 30000 nM (inactive)
O=C(CSc1nnnn1C1CC2CCC1C2)Nc1ccnc2ccccc12 (stereo not given) | > 30000 nM (inactive)
O=C(O)c1cccc(COc2ccc(CO)cc2Cl)c1 | 252 nM
Cc1oc2cc3c(C(=O)OCCN(C)C)c(C)oc3cc2c1C(=O)OCCN(C)C | 438 nM
CCOC(=O)c1[nH]c2c(c1C)C(=O)CC(c1ccco1)C2 (stereo not given) | 316 nM
O=C(CN1C(=O)c2ccccc2S1(=O)=O)N1CCc2ccccc21 | 2260 nM
Cc1ccc(C(=O)NCCn2cc(SCC(=O)Nc3cc(C)on3)c3ccccc32)cc1 | 5460 nM
Cc1cccc(-n2ncc3c(N(C)C4CCCCC4)ncnc32)c1 | 6590 nM
CCOC(=O)C(C(C)=O)c1c(Br)c(O)c(O)c2c(C(=O)c3ccc(C)cc3)coc12 (stereo not given) | 8330 nM
Cc1ccc(Nc2cc(C)nn2-c2nc(C)cc(=O)[nH]2)cc1 | 10600 nM (inactive)
COc1cc(C(=O)N2CCN(c3cc(Cl)ccc3Cl)CC2)cc(OC)c1OC | > 30000 nM (inactive)
CSc1nnc2c3ccccc3n(CCc3ccccc3)c2n1 | 10300 nM (inactive)
Cc1cccc(C)c1-n1nnnc1SCSc1nnnn1-c1c(C)cccc1C | 3410 nM
c1ccc(-c2noc(-c3ccc4c(c3)OCO4)n2)nc1 | > 30000 nM (inactive)
CC(C)(C)c1ccc(-c2noc(CCC(N)=O)n2)cc1 | 300 nM
Cc1oc(-c2ccccc2Cl)nc1CSCC(=O)N1CCCC1 | 1160 nM
Cc1ccc(-c2cc3c(nn2)-c2ccccc2C3=O)cc1 | 3290 nM
COc1cccc(Oc2cnc(N)nc2-c2ccc(OC)cc2O)c1 | 14600 nM (inactive)
CC1=CC(C)(C)Nc2ccc(OC(=O)c3cccnc3)cc21 | > 9970 nM (inactive)

Compound | IC50
CCCCn1c(SCc2c(C)noc2C)nc2cc(S(N)(=O)=O)ccc21 | 2600 nM
CCN(c1ccccc1)S(=O)(=O)c1ccc(Oc2ccc(-n3ccnc3)cc2)nc1 | 738 nM
CCNC(=O)CCc1nc(-c2ccc(C(C)(C)C)cc2)no1 | 1610 nM
CCOc1ccccc1NC(=O)Cn1nnc(C(=O)NCc2ccco2)c1N | 1350 nM
COc1ccc2c(c1)sc1nc(-c3ccccc3)cn12 | 1870 nM
CC1=CC(C)(C)Nc2ccc(OC(=O)CN3C(=O)CCC3=O)cc21 | 6840 nM
Cc1cccc(N2CCN(C(=O)c3ccc(CS(=O)(=O)c4ccccc4C)o3)CC2C)c1 (stereo not given) | 7040 nM
CCCN1C=CC(=C2C(=O)c3ccccc3C2=O)C=C1 | 1040 nM
O=c1c2ccccc2cnn1-c1nc2ccccc2s1 | 3300 nM
Cc1ccc2nc(-c3ccccc3)cn2c1 | 1150 nM
COc1cc(NC(=O)c2cccc3c2C(=O)N(Cc2cccnc2)C3)cc(OC)c1OC | 1180 nM
O=C(NC1c2ccccc2-c2ccccc21)N1CCCCC1 | > 30000 nM (inactive)
Cn1c(=O)n(C)c2cc(C(=O)Nc3ccc4c(c3)OCO4)ccc21 | 2250 nM
CCOc1ccc(-c2nc(CSCC(=O)NCc3ccco3)c(C)o2)cc1 | 1830 nM
COc1cccc2c(C)c(C(=O)O)[nH]c12 | 4840 nM
CNC(=O)CCc1nc(-c2ccc(C(C)(C)C)cc2)no1 | 17000 nM (inactive)
Oc1c(C(Nc2nc3ccccc3s2)c2ccco2)ccc2cccnc12 (stereo not given) | 1710 nM
Cc1nn(Cc2c(Cl)cccc2Cl)c(C)c1NC(=O)c1cc(C(C)C)on1 | > 9970 nM (inactive)
CCOc1ccc(OCc2cccc(C(=O)O)c2)cc1 | 192 nM
CCOc1ccc(-c2cc(C(=O)O)c3ccccc3n2)c(OCC)c1 | 4600 nM
N#CC1=C2SCC(O)(c3ccccc3)N2C(=O)CC1c1cccs1 (stereo not given) | 5020 nM
CCOc1ccc(OCc2cccc(C(=O)N3CCOCC3)c2)cc1 | 2570 nM
COc1cc(C2C(C#N)=C(C)NC3=C2C(=O)c2ccccc23)cc(OC)c1OC (stereo not given) | 6610 nM
COc1ccccc1-c1nnc2sc(-c3ccc(N(C)C)cc3)nn12 | > 9970 nM (inactive)
COc1ccc(-c2noc(CCCC(=O)O)n2)cc1 | > 30000 nM (inactive)
O=C(Cc1cccs1)Nc1nc2c(s1)CCCC2 | 2650 nM
COC(=O)C1=C(CN2CCCc3ccccc32)NC(=O)NC1c1ccc(F)cc1 (stereo not given) | 700 nM

Compound | IC50
Cn1cc(/C=N/n2cnc3scc(-c4ccc(Cl)cc4)c3c2=O)c2ccccc21 | > 30000 nM (inactive)
O=C(O)[C@@H]1CCCC[C@@H]1C(=O)N1CCc2ccccc2C1CN1C(=O)c2ccccc2C1=O (stereo not given in full) | > 30000 nM (inactive)
COc1cccc(NC(=O)CSc2nnc(-c3cc(C)n(-c4ccccc4)c3C)o2)c1 | > 9970 nM (inactive)
COc1ccc(-n2ncc3c(N4CCCCC4)ncnc32)cc1 | 2660 nM
Cc1c(C(=O)OCCOC(C)C)[nH]c2c1C(=O)CC(c1ccco1)C2 (stereo not given) | 1670 nM
Cc1ccc(-c2nc(-c3ccccn3)no2)cc1 | 2060 nM
CC(=O)c1ccc(-c2nc3c4ccccc4ccn3c2C(C)=O)o1 | 730 nM
CCN(CC)c1ccc2cc(NC(=O)CCC(=O)O)c(=O)oc2c1 | > 9970 nM (inactive)
CCN(CC)c1ccc2cc(-c3nc4ccccc4n3C)c(=O)oc2c1 | > 9970 nM (inactive)
COc1ccc(C2=Nn3c(nnc3-c3ccccc3OC)SC2)cc1OC | 1420 nM
Cc1cc(C(=O)OCC(=O)NCc2ccco2)c(C)n1-c1ccccc1 | > 30000 nM (inactive)
O=C(O)c1cccc(COc2ccccc2Cl)c1 | 615 nM
NC(=O)c1sc2nccc(Nc3ccccc3)c2c1N | 8970 nM
O=C1NC(Nc2nc3ccccc3s2)(C(F)(F)F)C(=O)N1C1CCCCC1 (stereo not given) | > 30000 nM (inactive)
Cc1cc(C)nc(N2CCC(C(=O)NCCc3ccc(F)cc3)CC2)n1 | > 30000 nM (inactive)
CCn1c2ccccc2c2cc(Nc3cc(C)nc4ncnn34)ccc21 | 1450 nM
CCN1C(=O)c2cccc3c(S(=O)(=O)Nc4ccccn4)ccc1c23 | 2940 nM
CCN(CC)c1ccc(-c2nn3c(-c4ccccc4OC)nnc3s2)cc1 | 819 nM
Cc1cc(-n2c(C)cc(C(=O)CSc3ncnc4ccccc34)c2C)no1 | > 30000 nM (inactive)
COc1ccc(OCc2cccc(C(=O)O)c2)cc1 | 257 nM
COC(=O)c1[nH]c2c(c1C)C(=O)CC(c1ccccc1)C2 (stereo not given) | 13200 nM (inactive)
CCCOc1c(OC)cccc1C1CC(=O)Nc2cc(OC)c(OC)c(OC)c21 (stereo not given) | > 30000 nM (inactive)
Cc1ccc(-c2nsc3c(N4CCC(C(N)=O)CC4)ncnc23)cc1 | > 30000 nM (inactive)
Cc1csc(NC(=O)c2sc3nc(-c4cccs4)ccc3c2N)n1 | 565 nM
COc1ccccc1C(=O)N1CCN(c2cccc(Cl)c2)CC1 | 17900 nM (inactive)
Cc1nn(-c2ccccc2)c(Cl)c1C1C(C#N)=C(N)Oc2n[nH]c(C)c21 (stereo not given) | 1860 nM
COc1ccc(C(=O)NC(=O)Nc2cc(C)ccn2)cc1 | 3900 nM

Compound | IC50
CCOC(=O)c1[nH]c(C)c(C(=O)c2cc(F)ccc2F)c1C | > 9970 nM (inactive)
O=C(Nc1nc2ccccc2[nH]1)c1ccccc1F | 2280 nM
COc1cc(C2C(C#N)=C(N)Oc3cc(N(C)C)ccc32)cc2c1OCO2 (stereo not given) | 766 nM
COc1cc(CC(NC(C)=O)C(=O)NC2CCN(c3nc(C)cc(C)c3C#N)CC2)cc(OC)c1 (stereo not given) | 1640 nM
c1ccc(-c2noc(-c3ccc4ccccc4c3)n2)nc1 | 1400 nM
c1ccc(-c2cccc(-c3ccccn3)n2)nc1 | 1090 nM
Cc1cccc2cc(CN(Cc3cccs3)C(c3nnnn3C3CCCC3)C(C)C)c(=O)[nH]c12 (stereo not given) | 8420 nM
O=C(NC1=NCCS1)C1COc2ccccc2O1 (stereo not given) | 2420 nM
C=C(C)COc1ccc(-c2[nH]ncc2-c2ccc(OC)c(OC)c2)c(O)c1 | 8250 nM
COc1cc(OC)cc(-c2cc3nc(C)c(CCC(=O)O)c(C)n3n2)c1 | 1540 nM
CC(C)c1nnc(NC(=O)c2c(O)c3cccc4c3n(c2=O)CCC4)s1 | > 30000 nM (inactive)
CCCN(CCC)S(=O)(=O)c1ccc(C(=O)Nc2nnc(-c3cccc(OC)c3)o2)cc1 | 4510 nM
O=C(Nc1ccc(N2CCOCC2)cc1)c1cnsn1 | 4220 nM
COc1cccc(-c2nnc3n2N=C(C(C)(C)C)CS3)c1 | 3280 nM
Cc1ccc(-c2cnc(NC(=O)CCC(=O)N3CCCCC3)n2C)cc1 | 953 nM
CCOC(=O)c1ccccc1NC(=O)Cn1c(-c2nonc2N)nc2ccccc21 | 11600 nM (inactive)
CCCOc1ccccc1C1CC(=O)Nc2cc3c(cc21)OCCO3 (stereo not given) | 25000 nM (inactive)
CC1CCCN(c2ncnc3c2cnn3-c2ccc(Cl)cc2)C1 (stereo not given) | 73 nM
Cc1nn(Cc2ccccc2Cl)c(C)c1C(=O)Nc1nnc(C2CC2)s1 | 2500 nM
O=C(/C=C\Nc1ccc2c(c1)OCO2)c1ccccn1 | 3030 nM
CC1CCN(c2nc3ccc(C(=O)O)cc3s2)CC1 | 203 nM
CCN1C=CC(=C2C(=O)c3ccccc3C2=O)C=C1 | 4750 nM
Cc1cc(C(=O)CN2C(=O)c3ccccc3S2(=O)=O)c(C)n1CC1CCCO1 (stereo not given) | 310 nM
O=C(c1ccc(Cl)cc1)N1CCCCC(Sc2nnc(-c3ccc4c(c3)OCO4)o2)C1=O (stereo not given) | 1240 nM
